Test results as given in patent US4634706A, “Griseolic acid derivatives, and their use as enzyme inhibitors” (Sankyo Company Limited, priority 1983, dated 1987).

Legend:
cGMP PDE = experiment: Phosphodiesterase (PDE) inhibitory activity, cGMP substrate; format: biochemical; conditions: cGMP as substrate, crude enzyme from rat brains; read-out: I50 cGMP PDE
Procedure: (§1) The test was carried out following essentially the method of A. L. Pichard and Y. U. Chung [Journal of Biological Chemistry, 251, 5726-5737 (1976)]. A crude enzymatic solution derived from rat brains was used as the source of cAMP PDE.
(§2) ^14 C-labeled cAMP was used as the substrate. It was employed in a 0.2M Tris-hydrochloric acid buffer solution (pH 8.0) in an amount sufficient to provide a final concentration of 0.14 μM. "Tris" is tris(hydroxymethyl)aminomethane. The substrate solution was mixed with an appropriate amount of the compound under test dissolved in 2-5 μl of dimethyl sulfoxide and with 20 μl of a snake venom solution and 40 μl of the crude enzyme solution. Sufficient Tris-hydrochloric acid buffer was added to make a total volume of 100 μl. The mixture was allowed to react at 30° C. for 20 minutes. At the end of this time, the reaction mixture was treated with an Amberlite (trade mark) IRP-58 resin and the level of residual adenosine radioactivity in the product was determined.
The experiment was repeated, except that cyclic guanosine monophosphate (cGMP) was employed as the substrate instead of cAMP. The I50 value against cGMP PDE was also calculated.

cAMP PDE = experiment: Phosphodiesterase (PDE) inhibitory activity, cAMP substrate; format: biochemical, rat; conditions: 0.14 μM 14C-labeled cAMP, pH 8.0, 30° C., 20 minutes, crude enzyme from rat brains; read-out: I50 cAMP PDE
Procedure: as §1, §2

cerebral blood flow = experiment: Improving cerebral blood flow; format: in vivo, rabbit
From the text: The "duration (T1/2)" is the time in minutes required for the increase in cerebral blood flow to reduce by one half.

SMILES | IC50 (cGMP PDE) [µM] | IC50 (cAMP PDE) [µM] | also measured
COc1ncnc2c1ncn2C1OC2=CC(C(=O)O)([C@@H](O)C(=O)O)OC2[C@H]1O (stereo partly shown) [Compound No. 124, 6-desamino-6-methoxygriseolic acid] | 4.9 | 10 | 
Nc1ncnc2c1nc(Br)n2C1OC23OC(C(=O)O)C(C(=O)O)(OC2[C@H]1O)C3Br (stereo partly drawn) [Compound No. 187, 4',7'-anhydro-5',α,8-dibromo-4'α-hydroxygriseolic acid] | 32 | 35 | 
Nc1ncnc2c1ncn2C1OC2=CC(C(=O)O)([C@@H](OC(=O)c3ccccc3)C(=O)O)OC2[C@H]1O (stereo partly shown) [Compound No. 37, O^7' -benzoylgriseolic acid] | 2.9 | 0.31 | 
Nc1ncnc2c1ncn2C1OC2=CC(C(=O)O)([C@H](N)C(=O)O)OC2[C@H]1O (stereo partly drawn) [Compound No. 135, 7'(S)-amino-7'-deoxygriseolic acid] | 4.2 | 2 | 
Nc1ncnc2c1ncn2C1OC2=CC(C(=O)O)([C@@H](O)C(=O)O)OC2[C@@H]1N (stereo partly drawn) [Compound No. 248, 2'(S)-amino-2'-deoxygriseolic acid] | 12.7 | 3.2 | 
[N-]=[N+]=N[C@H]1C2OC(C(=O)O)([C@@H](O)C(=O)O)C=C2OC1n1cnc2c(N)ncnc21 (stereo partly drawn) [Compound No. 247, 2'(S)-azido-2'-deoxygriseolic acid] | 6.4 | 0.45 | 
COc1ccc(Cc2nccc3cc(OC)c(OC)cc23)cc1OC [Papaverine, papaverine, reference compound] |  |  | Change in blood pressure (pascals) (cerebral blood flow; 1 mg/kg): -1040 pascals; Change in blood pressure mm Hg (cerebral blood flow; 1 mg/kg): -7.8 mm Hg
O=C(O)[C@H](O)C1(C(=O)O)C=C2OC(n3cnc4c(NCc5ccccc5)ncnc43)[C@H](O)C2O1 (stereo partly shown) [Compound No. 63, N^6 -benzylgriseolic acid] | 9.7 | 7.4 | 
O=C(O)C(O)C1(C(=O)O)C=C2OC(n3c(Br)nc4c(=O)[nH]cnc43)C(O)C2O1 (stereo not shown) [Compound No. 197, 8-bromo-6-desamino-6-hydroxygriseolic acid] | 13.1 | 25 | 
Nc1ncnc2c1nc(Br)n2C1OC2=CC(C(=O)O)([C@@H](O)C(=O)O)OC2[C@H]1O (stereo partly shown) [Compound No. 196, 8-bromogriseolic acid] | 1.7 | 2.5 | 
Nc1ncnc2c1ncn2C1OC2=CC(C(=O)O)([C@@H](OC(=O)c3ccccc3)C(=O)O)OC2[C@H]1OC(=O)c1ccccc1 (stereo partly shown) [Compound No. 40, O^2',O^7' -dibenzoylgriseolic acid] | 90 | 3.2 | 
O=C(O)C(O)C1(C(=O)O)C=C2OC(n3cnc4c(=O)[nH]cnc43)C(O)C2O1 (stereo not shown) [Compound No. 51, 6-desamino-6-hydroxygriseolic acid] | 0.13 | 0.32 | 
O=C(Nc1ncnc2c1ncn2C1OC2=CC(C(=O)O)([C@@H](OC(=O)c3ccccc3)C(=O)O)OC2[C@H]1O)c1ccccc1 (stereo partly shown) [Compound No. 39, N^6,O^7' -dibenzoylgriseolic acid] | 111 | 33 | 
CC(=O)O[C@@H](C(=O)O)C1(C(=O)O)C=C2OC(n3cnc4c(=N)n(Cc5ccccc5)cnc43)[C@H](O)C2O1 (stereo partly shown) [Compound No. 46, O^7' -acetyl-N^1 -benzylgriseolic acid] | 0.9 | 1.8 | 
Nc1ncnc2c1ncn2C1OC2=CC(C(=O)O)(C(Cl)C(=O)O)OC2[C@H]1O (stereo partly shown) [Compound No. 88, 7'-chloro-7'-deoxygriseolic acid] | 14.8 | 1.5 | 
O=C(O)[C@H](O)C1(C(=O)O)C=C2OC(n3cnc4cncnc43)[C@H](O)C2O1 (stereo partly shown) [Compound No. 53, 6-desamino-6-hydrogriseolic acid] | 1.2 | 14 | 
[N-]=[N+]=N[C@H](C(=O)O)C1(C(=O)O)C=C2OC(n3cnc4c(N)ncnc43)[C@H](O)C2O1 (stereo partly shown) [Compound No. 81, 7'-azido-7'-deoxygriseolic acid] | 13 | 4.4 | 
Nc1ncnc2c1ncn2C1OC2=CC(C(=O)O)([C@@H](O)C(=O)O)OC2[C@H]1OC(=O)c1ccccc1 (stereo partly shown) [Compound No. 36, O^2' -benzoylgriseolic acid] | 48 | 6.8 | 
Cn1c(=O)c2[nH]cnc2n(C)c1=O [theophylline, reference compound] | 196 | 360 | 

SMILES | IC50 (cGMP PDE) [µM] | IC50 (cAMP PDE) [µM] | also measured
Nc1ncnc2c1nc(S)n2C1OC2=CC(C(=O)O)([C@@H](O)C(=O)O)OC2[C@H]1O (stereo partly shown) [Compound No. 192, 8-mercaptogriseolic acid] | 49.8 | 30.4 | 
CNc1ncnc2c1ncn2C1OC2=CC(C(=O)O)([C@@H](O)C(=O)O)OC2[C@H]1O (stereo partly shown) [Compound No. 58, N^6 -methylgriseolic acid] | 14 | 2 | 
CC[C@]12CCCN3CCc4c(n(c5ccccc45)[C@@](O)(C(=O)OC)C1)[C@@H]32 [Vincamine, reference compound] |  |  | Duration (T 1/2) (cerebral blood flow; 1 mg/kg): 3.2 min; Increase in cerebral blood flow (Vp), ratio to papaverine 1 mg/kg (cerebral blood flow; 1 mg/kg): 1.7; Duration (T 1/2) (cerebral blood flow; 2.5 mg/kg): 2.1 min; Increase in cerebral blood flow (Vp), ratio to papaverine 1 mg/kg (cerebral blood flow; 2.5 mg/kg): 3.2
COC(=O)C1=C(C)NC(C)=C(C(=O)OCCN(C)Cc2ccccc2)C1c1cccc([N+](=O)[O-])c1 (stereo not shown) [Nicardipine, reference compound] |  |  | Duration (T 1/2) (cerebral blood flow; 0.01 mg/kg): 14 min; Increase in cerebral blood flow (Vp), ratio to papaverine 1 mg/kg (cerebral blood flow; 0.01 mg/kg): 3.2
Nc1ncnc2c1ncn2C1OC2=CC(CC(=O)O)(C(=O)O)OC2[C@H]1O (stereo partly shown) [Compound No. 133, 7'-deoxygriseolic acid] | 1.1 | 0.14 | Duration (T 1/2) (cerebral blood flow; 10 mg/kg): > 60 min; Increase in cerebral blood flow (Vp), ratio to papaverine 1 mg/kg (cerebral blood flow; 10 mg/kg): 10
N=c1c2ncn(C3OC4=CC(C(=O)O)([C@@H](O)C(=O)O)OC4[C@H]3O)c2ncn1Cc1ccccc1 (stereo partly shown) [Compound No. 45, N^1 -benzylgriseolic acid] | 1.2 | 0.6 | 
Nc1ncnc2c1ncn2C1OC2=CC(C(=O)O)([C@H](Br)C(=O)O)OC2[C@H]1O (stereo partly drawn) [Compound No. 137, 7'(S)-bromo-7'-deoxygriseolic acid] | 19 | 3.4 | 
Nc1ncnc2c1ncn2C1OC2=CC(C(=O)O)([C@@H](O)C(=O)O)OC2[C@@H]1Br (stereo partly drawn) [Compound No. 143, 2'(S)-bromo-2'-deoxygriseolic acid] | 4.1 | 0.09 | 
CC(=O)O[C@H](C(=O)O)C1(C(=O)O)C=C2OC(n3cnc4c(N)ncnc43)[C@H](O)C2O1 (stereo partly drawn) [Compound No. 141, 7'(S)-acetoxy-7'-deoxygriseolic acid] | 1.05 | 0.22 | Duration (T 1/2) (cerebral blood flow; 10 mg/kg): > 60 min; Increase in cerebral blood flow (Vp), ratio to papaverine 1 mg/kg (cerebral blood flow; 10 mg/kg): 9.2
NNc1ncnc2c1ncn2C1OC2=CC(C(=O)O)([C@@H](O)C(=O)O)OC2[C@H]1O (stereo partly shown) [Compound No. 60, 6-desamino-6-hydrazinogriseolic acid] | 4.8 | 5.4 | 
COc1nc2c(N)ncnc2n1C1OC2=CC(C(=O)O)([C@@H](O)C(=O)O)OC2[C@H]1O (stereo partly shown) [Compound No. 195, 8-methoxygriseolic acid] | 3.2 | 3.9 | 
O=C(O)CC1(C(=O)O)C=C2OC(n3cnc4c(=O)[nH]cnc43)C(O)C2O1 (stereo not shown) [Compound No. 138, 6-desamino-7'-deoxy-6-hydroxygriseolic acid] | 0.05 | 0.14 | Duration (T 1/2) (cerebral blood flow; 10 mg/kg): > 60 min; Increase in cerebral blood flow (Vp), ratio to papaverine 1 mg/kg (cerebral blood flow; 10 mg/kg): 5.5
Nc1ncnc2c1ncn2C1OC2=CC(C(=O)O)([C@H](O)C(=O)O)OC2[C@H]1O (stereo partly drawn) [Compound No. 140, 7'-deoxy-7'(S)-hydroxygriseolic acid] | 2.8 | 0.76 | 
Nc1ncnc2c1ncn2C1CC2OC(C(=O)O)([C@@H](O)C(=O)O)C=C2O1 (stereo partly shown) [Compound No. 144, 2'-deoxygriseolic acid] | 1.1 | 0.19 | 
CN(C)c1ncnc2c1ncn2C1OC2=CC(C(=O)O)([C@@H](O)C(=O)O)OC2[C@H]1O (stereo partly shown) [Compound No. 59, N^6 -dimethylgriseolic acid] | 39 | 31 | 
CC(=O)O[C@@H]1C2OC(C(=O)O)([C@@H](OC(C)=O)C(=O)O)C=C2OC1n1cnc2c(N)ncnc21 (stereo partly shown) [Compound No. 41, O^2',O^7' -diacetylgriseolic acid] | 243 | 9.3 | 
Nc1ncnc2c1ncn2C1OC2=CC(C(=O)O)([C@@H](O)C(=O)O)OC2[C@@H]1I (stereo partly drawn) [Compound No. 249, 2'-deoxy-2'(S)-iodogriseolic acid] | 2.8 | 0.44 | 
Nc1ncnc2c1ncn2C1OC2=CC(C(=O)O)([C@@H](O)C(=O)O)OC2[C@@H]1Cl (stereo partly drawn) [Compound No. 142, 2'(S)-chloro-2'-deoxygriseolic acid] | 2.5 | 0.15 | 
